2 molecules from patent US20060122198A1, “Antiepileptic agent” (Kyowa Hakko Kogyo Co., Ltd., priority 2003, published 2006) can be followed below.

Where only a bound is given, the exact number is not on record here.

The test system of one data set is male mice of dd-strain. The settings on record: mouse, in vivo, po, 7 days. The method, then: A test compound was orally administered to male mice (body weight: 20±1 g) of dd-strain which comprises three mice per group. State of death after 7 days from the administration was observed and the minimum lethal dose (MLD) was determined.
Data set [1] concerns convulsion induced by administration of reserpine and electric stimulation. The experiment in a line: Antiepileptic action: tonic extended convulsion induced by reserpine and electric stimulation. It counts as in vivo. As to conditions: male ddY mice treated with reserpine 5 mg/kg i.p.; test compound 30 mg/kg orally; electric stimulation 1,000 V, 50 mA, 0.2 second after one hour; compared with reserpine + solvent group, p<0.01 (Aspine-Welch test). The method, then: Convulsion induced by administration of reserpine and electric stimulation has been known as an effective model for epilepsy [European Journal of Pharmacology, 1994, volume 23, page 260]. Male mice (body weight: 15 to 17 g; Nippon SLC, Hamamatsu) of ddY strain of four weeks age were subjected to a preliminary breeding and 65 mice where body weight became 22.4 to 26.0 g were used for the experiment. Fifteen mice among the above were used as a non-treated group. Reserpine (Apoplon Injection 1 mg; Daiichi Seiyaku) diluted with distilled water for injection (Otsuka Seiyaku, Naruto) was intraperitoneally administered (treatment with reserpine) at the dose of 5 mg/kg to each of the remaining 50 mice and the experiment was carried out after 18 to 24 hours from the administration. Among the mice subjected to the treatment with reserpine, two groups each comprising ten mice were randomly selected and used as a group administered with a solvent and a group administered with the test compound. The test compound was used as a suspension of a 0.5% MC solution [distilled water for injection containing 0.5% methyl cellulose 400 cP (Wako Pure Chemicals)] and Compound (I) was orally administered at the dose of 30 mg/kg (10 mL/kg in terms of volume) to the mice treated with reserpine (a group administered with the test compound). […]

In the case of `COc1cc(/C=C/c2nc3c(c(=O)n(C)c(=O)n3C)n2C)cc(OC)c1OC` [Compound 1, (E)-8-(3,4,5-Trimethoxystyryl)caffeine], in the data set with male mice of dd-strain, the “minimum lethal dose (MLD)” value is recorded as > 1,000 mg/kg. Further, in data set [1], the “duration of convulsion (tonic extended convulsion)” value was “significant shortening action”. For `CCCn1c(=O)c2c(nc(/C=C/c3ccc(OC)c(OC)c3)n2C)n(CCC)c1=O` [Compound 3, (E)-8-(3,4-Dimethoxystyryl)-7-methyl-1,3-dipropylxanthine], the “duration of convulsion (tonic extended convulsion)” value in data set [1] was “significant shortening action”.
